Here are results for 25 compounds from US7186714B2, “Imidazo[1,2-α]pyridine derivatives for the prophylaxis and treatment of herpes viral infections” (SmithKline Beecham Corporation, priority 2001, dated 2007).

The assay concerns HSV-1. The assay is described as follows: HSV infection of Vero 76 cells, viral DNA detected by hybridization capture with chemiluminescence. It counts as cell-based. The note with it: Human alphaherpesvirus 1; HSV-1 in Vero 76 cells, MOI=0.001, incubated 40–48 hours with test compound. The protocol:
Vero 76 cells were maintained in MEM with Earle's salts, L-glutamine, 8% FBS (Hyclone, A-1111-L) and 100 units/mL Penicillin-100 μg/mL Streptomycin. For assay conditions, FBS was reduced to 2%. Cells are seeded into 96-well tissue culture plates at a density of 5×10^4 cells/well after being incubated for 45 min at 37° C. in the presence of HSV-1 or HSV-2 (MOI=0.001). Test compounds are added to the wells and the plates are incubated at 37° C. for 40–48 hours. Cell lysates are prepared as follows: media was removed and replaced with 150 μL/well 0.2 N NaOH with 1% Igepal CA 630 or NP-40. Plates were incubated up to 14 days at room temperature in a humidified chamber to prevent evaporation.
For the detection probe, a gel-purified, digoxigenin-labeled, 710-bp PCR fragment of the HSV UL-15 sequence was utilized. PCR conditions included 0.5 μM primers, 180 μM dTTP, 20 μM dUTP-digoxigenin (Boehringer Mannheim 1558706), 200 μM each of dATP, dCTP, and dGTP, 1×PCR Buffer II (Perkin Elmer), 2.5 mM MgCl2, 0.025 units/μL of AmpliTaq Gold polymerase (Perkin Elmer), and 5 ng of gel-purified HSV DNA per 100 μL Extension conditions were 10 min at 95° C., followed by 30 cycles of 95° C. for 1 min, 55° C. for 30 sec, and 72° C. for 2 min. The amplification was completed with a 10-min incubation at 72° C. Primers were selected to amplify a 728 bp probe spanning a section of the HSV1 UL15 open reading frame (nucleotides 249–977). Single-stranded transcripts were purified with Promega M13 Wizard kits. The final product was mixed 1:1 with a mixture of 6 M GuSCN, 100 mM EDTA and 200 μg/mL herring sperm DNA and stored at 4° C.
The capture DNA plasmid (HSV UL13 region in pUC) was linearized by cutting with XbaI, denatured for 15 min at 95° C. and diluted immediately into Reacti-Bind DNA Coating Solution (Pierce, 17250, diluted 1:1 with TE buffer, pH 8) at 1 ng/μL 75 μL/well were added to Corning (#3922 or 9690) white 96-well plates and incubated at room temperature for at least 4 hrs before washing twice with 300 μL/well 0.2×SSC/0.05% Tween-20 (SSC/T buffer). The plates were then incubated overnight at room temperature with 150 μL/well 0.2 N NaOH, 1% IGEPAL and 10 μg/mL herring sperm DNA.
Twenty-seven (27) μL of cell lysate was combined with 45 μL of hybridization solution (final concentration: 3M GuSCN, 50 mM EDTA, 100 μg/ml salmon sperm DNA, 5×Denhardt's solution, 0.25×APE, and 5 ng of the digoxigenin-labeled detection probe). APE is 1.5 M NH4-acetate, 0.15 M ammonium phosphate monobasic, and 5 mM EDTA adjusted to pH 6.0. Mineral oil (50 μL) was added to prevent evaporation. The hybridization plates were incubated at 95° C. for 10 minutes to denature the DNA, then incubated at 42° C. overnight. The wells were washed 6× with 300 μL/well SSC/T buffer then incubated with 75 μL/well anti-digoxigenin-HRP-conjugated antibody (Boehringer Mannheim 1207733, 1:5000 in TE) for 30 min at room temperature. The wells were washed 6× with 300 μL/well with PBS/0.05% Tween-20 before 75 μL/well SuperSignal LBA substrate (Pierce) was added. The plates were incubated at room temperature for 30 minutes and chemiluminescence was measured in a Wallac Victor reader.
A word on the IC50: it is the midpoint of a concentration-inhibition curve. Low values mean inhibition by little substance, high ones a need for much substance. For the compound `O=C(O)c1cccc(-c2nc3c(NC4CCCC4)cccn3c2-c2ccnc(NC3CCCC3)n2)c1` [Example 55, 3-{8-(Cyclopentylamino)-3-[2-(cyclopentylamino)pyrimidin-4-yl]imidazo[1,2-a]pyridin-2-yl}benzoic acid], half-maximal inhibition (IC50) required 7 µM. `Fc1ccc(-c2nc3c(NC4CCCC4)cc(Cl)cn3c2-c2ccnc(NC3CCCC3)n2)cc1` [Example 39, N-{4-[6-Chloro-8-(cyclopentylamino)-2-(4-fluorophenyl)imidazo[1,2-α]pyridin-3-yl]-2-pyrimidinyl}-N-cyclopentylamine] registered an IC50 of 1.4 µM.

In the case of `Cc1ccc(-c2nc3c(NC4CCCC4)cccn3c2-c2ccnc(NC3CCCC3)n2)cc1` [Example 20, N-Cyclopentyl-3-[2-(cyclopentylamino)-4-pyrimidinyl]-2-(4-methylphenyl)imidazo[1,2-α]pyridin-8-amine], the midpoint of inhibition, the IC50, lay at 0.71 µM.

On to `Fc1ccc(-c2nc3c(NC4CC4)cccn3c2-c2ccnc(NC3CCCC3)n2)cc1` [Example 51, 3-[2-(cyclopentylamino)-4-pyrimidinyl]-N-cyclopropyl-2-(4-fluorophenyl)imidazo[1,2-a]pyridin-8-amine], for which the midpoint of inhibition, the IC50, lay at 0.51 µM. `Fc1ccc(-c2nc3c(N4CCOCC4)cc(N4CCOCC4)cn3c2-c2ccnc(NC3CCCC3)n2)cc1` [Example 43, N-Cyclopentyl-4-[2-(4-fluorophenyl)-6,8-di(4-morpholinyl)imidazo[1,2-a]pyridin-3-yl]-2-pyrimidinamine] returned a 50% inhibitory concentration (IC50) of 0.47 µM. As to `N#Cc1cccc(-c2nc3c(Cl)cccn3c2-c2ccnc(NC3CCCC3)n2)c1` [Example 36, 3-{8-Chloro-3-[2-(cyclopentylamino)-4-pyrimidinyl]imidazo[1,2-α]pyridin-2-yl}benzonitrile], 0.65 µM corresponded to half-maximal inhibition (IC50).

In the case of `C=CCOc1ccc(-c2nc3c(NC4CCCC4)cccn3c2-c2ccnc(NC3CCCC3)n2)cc1` [Example 52, 2-[4-(Allyloxy)phenyl]-N-cyclopentyl-3-[2-(cyclopentylamino)-4-pyrimidinyl]imidazo[1,2-a]pyridin-8-amine], the IC50 is 0.62 µM. With `c1cc(-c2nc3c(NC4CCCC4)cccn3c2-c2ccnc(NC3CCCC3)n2)cc(N(CC2CC2)CC2CC2)c1` [Example 35, 2-{3-[Bis(cyclopropylmethyl)amino]phenyl}-N-cyclopentyl-3-[2-(cyclopentylamino)-4-pyrimidinyl]imidazo[1,2-α]pyridin-8-amine] the figure was 1.46 µM; with `Cc1cc(Br)cn2c(-c3ccnc(NC4CCCC4)n3)c(-c3ccc(F)cc3)nc12` [Example 44, N-{4-[6-Bromo-2-(4-fluorophenyl)-8-methylimidazo[1,2-a]pyridin-3-yl]-2-pyrimidinyl}-N-cyclopentylamine], 1.2 µM.

Regarding `COc1cccc(-c2nc3c(NC4CCCC4)cccn3c2-c2ccnc(NC3CCCC3)n2)c1` [Example 16, N-Cyclopentyl-3-[2-(cyclopentylamino)-4-pyrimidinyl]-2-(3-methoxyphenyl)imidazo[1,2-α]pyridin-8-amine], the concentration for half-maximal inhibition (IC50) was determined as 0.37 µM.

For `Fc1ccc(-c2nc3c(OCc4ccccc4)cccn3c2-c2ccnc(NC3CCCC3)n2)cc1` [Example 57, 4-[8-(Benzyloxy)-2-(4-fluorophenyl)imidazo[1,2-a]pyridin-3-yl]-N-cyclopentylpyrimidin-2-amine], the IC50 turned out to be 0.97 µM. In the case of `Fc1ccc(-c2nc3ccccn3c2-c2ccnc(NC3CCCC3)n2)cc1` [Example 49, N-Cyclopentyl-4-[2-(4-fluorophenyl)imidazo[1,2-a]pyridin-3-yl]-2-pyrimidinamine], the midpoint of inhibition, the IC50, lay at 3.3 µM. `CCCCNc1cccn2c(-c3ccnc(NC4CCCC4)n3)c(-c3cccc(N=[N+]=[N-])c3)nc12` [Example 56, 2-(3-Azidophenyl)-N-butyl-3-[2-(cyclopentylamino)pyrimidin-4-yl]imidazo[1,2-a]pyridin-8-amine] had an IC50 of 2.9 µM. With `Nc1cccc(-c2nc3c(Cl)cccn3c2-c2ccnc(NC3CCCC3)n2)c1` [Example 32, 4-[2-(3-Aminophenyl)-8-chloroimidazo[1,2-α]pyridin-3-yl]-N-cyclopentyl-2-pyrimidinamine] the figure was 3.3 µM.

`c1cc(NCC2CC2)cc(-c2nc3c(NC4CCCC4)cccn3c2-c2ccnc(NC3CCCC3)n2)c1` [Example 34, N-Cyclopentyl-3-[2-(cyclopentylamino)-4-pyrimidinyl]-2-{3-[(cyclopropylmethyl)amino]phenyl}imidazo[1,2-α]pyridin-8-amine] returned an IC50 of 1.5 µM.

In turn, `Fc1ccc(-c2nc3c(NC4CCCC4)cc(C(F)(F)F)cn3c2-c2ccnc(NC3CCCC3)n2)cc1` [Example 54, N-Cyclopentyl-3-[2-(cyclopentylamino)-4-pyrimidinyl]-2-(4-fluorophenyl)-6-(trifluoromethyl)imidazo[1,2-a]pyridin-8-amine] showed an IC50 of 0.84 µM. `NC(=O)c1ccc(-c2nc3c(N4CCOCC4)cccn3c2-c2ccnc(NC3CCCC3)n2)cc1` [Example 28, 4-[3-[2-(Cyclopentylamino)-4-pyrimidinyl]-8-(4-morpholinyl)imidazo[1,2-α]pyridin-2-yl]benzamide] displayed an IC50 of 6.3 µM.

`Cc1cc(NC2CCCC2)cn2c(-c3ccnc(NC4CCCC4)n3)c(-c3ccc(F)cc3)nc12` [Example 45, N-Cyclopentyl-3-[2-(cyclopentylamino)-4-pyrimidinyl]-2-(4-fluorophenyl)-8-methylimidazo[1,2-a]pyridin-6-amine] yielded an IC50 of 0.14 µM. Regarding `Nc1cccc(-c2nc3c(NC4CCCC4)cccn3c2-c2ccnc(NC3CCCC3)n2)c1` [Example 33, 2-(3-Aminophenyl)-N-cyclopentyl-3-[2-(cyclopentylamino)-4-pyrimidinyl]imidazo[1,2-α]pyridin-8-amine], the 50% inhibitory concentration (IC50) worked out at 1.6 µM. To `CNc1nccc(-c2c(-c3ccc(F)cc3)nc3c(Cl)cccn23)n1` [Example 7, 4-[8-Chloro-2-(4-fluorophenyl)imidazo[1,2-α]pyridin-3-yl]-N-methyl-2-pyrimidinamine] belongs 2.4 µM. Turning to `Fc1ccc(-c2nc3c(NC4CCCC4)cccn3c2-c2ccnc(NC3CCCC3)n2)cc1` [Example 3, N-Cyclopentyl-3-[2-(cyclopentylamino)-4-pyrimidinyl]-2-(4-fluorophenyl)imidazo[1,2-α]pyridin-8-amine], the IC50 was 0.4 µM. In turn, `Cc1ccc(-c2nc3c(Cl)cccn3c2-c2ccnc(NC3CCCC3)n2)cc1` [Example 19, 4-[8-Chloro-2-(4-methylphenyl)imidazo[1,2-α]pyridin-3-yl]-N-cyclopentyl-2-pyrimidinamine] came in with an IC50 of 3.74 µM. For the compound `Fc1ccc(-c2nc3ccc(NC4CCCC4)cn3c2-c2ccnc(NC3CCCC3)n2)cc1` [Example 48, N-Cyclopentyl-3-[2-(cyclopentylamino)-4-pyrimidinyl]-2-(4-fluorophenyl)imidazo[1,2-a]pyridin-6-amine], half-maximal inhibition (IC50) was put at 2.1 µM. With `Fc1ccc(-c2nc3c(N4CCCC4)cccn3c2-c2ccnc(NC3CCCC3)n2)cc1` [Example 4, N-Cyclopentyl-4-[2-(4-fluorophenyl)-8-(1-pyrrolidinyl)imidazo[1,2-α]pyridin-3-yl]-2-pyrimidinamine] the figure was 1.4 µM; with `Fc1ccc(-c2nc3c(Br)cc(Br)cn3c2-c2ccnc(NC3CCCC3)n2)cc1` [Example 40, N-Cyclopentyl-4-[6,8-dibromo-2-(4-fluorophenyl)imidazo[1,2-a]pyridin-3-yl]-2-pyrimidinamine], 0.79 µM.
